Source: US20100111965A1, “COMBINATION THERAPY” (FUSION ANTIBODIES LIMITED, priority 2006, published 2010)

What was measured:
Assay type in all cases: cell-based, human
[1] = test system: RKO +/+; test: Western blot of AREG protein in RKO lysates after chemotherapy; details: RKO p53 wild type lysates; 48 hour treatment
Description: (§1) FIG. 2 illustrates western blot analysis of AREG and gamma tubulin protein expression in HCT116 +/+ and RKO +/+ with/without a 48 hour CPT11 or 5-Fu treatment; HCT 116, RKO, HT 29 and H630 are human colorectal carcinoma cell lines. After different time exposure to chemotherapy the cells were harvested, and washed in 1×PBS. The cell pellet was then lysed in a suitable amount of 1×RIPA lysis buffer (150 mM NaCl, 10 mM Tris at pH 7.2, 0.1% SDS, 1.0% triton X-100 and 5 mM.EDTA) supplemented with protease inhibitors. The cell lysate was briefly vortexed, incubated on ice for 10 min and then centrifuged at 12,000 rpm to remove cell debris. Following centrifugation, the lysate supernatant was removed to a fresh eppendorf tube. Protein concentrations were assayed using the BCA Protein Assay (Pierce) according to the manufacturer's instructions. The absorbance of each sample at 620 nm was assayed using a microplate reader. A standard BSA curve was plotted for each experiment and the protein concentration of each sample calculated. To each sample an equal volume of 5× Western sample buffer and 10% of the final volume of β-mercaptoethanol (Sigma) was added. The samples were denatured at 95° C. for 5 minutes and placed on ice prior to loading onto SDS polyacrylamide gel (SDS PAGE). […] Protein bands were detected by exposure to autoradiograph which was subsequently developed. […]

[2] = test system: H630 p53 mutant colorectal cancer cell; test: Western blot of AREG protein in H630 p53 mutant lysates after chemotherapy; details: 48 hour treatment, two separate experiments
Description: FIG. 4 illustrates analysis of AREG protein 14, expression in H630 p53 mutant colorectal cancer cell lysates following a 48 hour CPT11 treatment. Western blots were probed using an anti-amphiregulin antibody. […] HCT 116, RKO, HT 29 and H630 are human colorectal carcinoma cell lines. After different time exposure to chemotherapy the cells were harvested, and washed in 1×PBS. The cell pellet was then lysed in a suitable amount of 1×RIPA lysis buffer (150 mM NaCl, 10 mM Tris at pH 7.2, 0.1% SDS, 1.0% triton X-100 and 5 mM.EDTA) supplemented with protease inhibitors. The cell lysate was briefly vortexed, incubated on ice for 10 min and then centrifuged at 12,000 rpm to remove cell debris. Following centrifugation, the lysate supernatant was removed to a fresh eppendorf tube. Protein concentrations were assayed using the BCA Protein Assay (Pierce) according to the manufacturer's instructions. The absorbance of each sample at 620 nm was assayed using a microplate reader. A standard BSA curve was plotted for each experiment and the protein concentration of each sample calculated. To each sample an equal volume of 5× Western sample buffer and 10% of the final volume of β-mercaptoethanol (Sigma) was added. […] Protein bands were detected by exposure to autoradiograph which was subsequently developed. […]

[3] = test system: HCT116 +/+; test: Western blot of AREG protein in HCT116 lysates after chemotherapy; details: HCT116 p53 wild type lysates; 48 hour treatment
Description: as §1

Measured: AREG protein expression (western blot)

CCc1c2c(nc3ccc(OC(=O)N4CCC(N5CCCCC5)CC4)cc13)-c1cc3c(c(=O)n1C2)COC(=O)[C@]3(O)CC [CPT-11, irinotecan]
Enhanced AREG expression: all assays above
